Values joined by “and” are separate entries in the source; they are usually repeats but may differ in a detail not shown here. Equal values may be shown once. Read-outs that look alike come from different tables or passages of the source.
Columns and labels:
HCV replicon = assay: Primary HCV replicon cell assay; assay type: cell-based, Hepatitis C Virus
Protocol: (§1) Antiviral activity of test compounds was assessed in a 3-day assay using the stably-expressing HCV replicon cell line, AVA5 (sub-genomic CON1, genotype 1b) (Blight et al., 2000) maintained as sub-confluent cultures on 96-well plates as previously described (Okuse et al., 2005). Antiviral activity was determined by blot hybridization analysis of intracellular HCV RNA (normalized to the level of cellular B-actin RNA in each culture sample) and cytotoxicity was assessed by neutral red dye uptake after 3 days of treatment. Additional studies were performed using Huh7 cells containing another HCV replicon, H/FL-Neo, a genotype 1a full length construct (Blight et al., 2003). For studies involving human serum, standard culture medium (which contains 10% fetal bovine serum) and assay conditions were maintained.
(§2) EC50, EC90 and CC50 values (±standard deviations [S.D.]) were calculated by linear regression analysis using data combined from all treated cultures (Korba and Gerin, 1992; Okuse et al., 2005). […] Selectivity index (S.I.) was calculated as CC50/EC90 for HBV assays and CC50/EC50 for HCV assays. EC90 values were used for calculation of the S.I. in HBV assays since at least a […] depression of HBV DNA levels is typically required to achieve statistical significance in this assay system (Korba and Gerin, 1992). For combination treatments, EC50, EC90, CC50 and S.I. are presented for the first compound listed. The molar ratio of the compounds in each combination is also indicated.

HCV replicon cells = assay: Primary HCV replicon cell assay, cytotoxicity; conditions: primary assay
Protocol: as §1, §2

HCV replicon genotype 1B = assay: Secondary HCV replicon cell assay, genotype 1B; assay type: cell-based, Hepatitis C Virus
Description: (§3) Table 10 presents data from the secondary HCV replicon cell assays using genotypes 1B and 1A.

[1] = system: HCV replicon cells, genotype 1B; assay: Secondary HCV replicon cell assay, genotype 1B, cytotoxicity; assay type: cell-based
Description: as §3

HCV replicon genotype 1A = assay: Secondary HCV replicon cell assay, genotype 1A; assay type: cell-based, Hepatitis C Virus
Description: as §3

[2] = system: HCV replicon cells, genotype 1A; assay: Secondary HCV replicon cell assay, genotype 1A, cytotoxicity; assay type: cell-based
Description: as §3

HBV = HBV antiviral assay in confluent 2.2.15 cell cultures (HBV DNA, quantitative blot hybridization); assay type: cell-based, Hepatitis B Virus
Protocol: EC50, EC90 and CC50 values (±standard deviations [S.D.]) were calculated by linear regression analysis using data combined from all treated cultures (Korba and Gerin, 1992; Okuse et al., 2005). […] Selectivity index (S.I.) was calculated as CC50/EC90 for HBV assays and CC50/EC50 for HCV assays. EC90 values were used for calculation of the S.I. in HBV assays since at least a 3-fold depression of HBV DNA levels is typically required to achieve statistical significance in this assay system (Korba and Gerin, 1992).

2.2.15 cells = assay: Cytotoxicity by neutral red dye uptake in 2.2.15 cells; conditions: confluent 2.2.15 cultures, nine daily doses, neutral red uptake
Protocol: (§4) HBV antiviral assays were conducted as previous described (Korba and Gerin, 1992).
as §2

[3] = system: HCV replicon, sub-genomic CON1, genotype 1b; assay: 3-day HCV replicon assay in AVA5 cells (intracellular HCV RNA, blot hybridization); assay type: cell-based, Hepatitis C Virus
Protocol: as §1, §2

AVA5 cells = assay: Cytotoxicity by neutral red dye uptake in AVA5 cells; assay type: cell-based; conditions: Genotype 1b replicon, 3 days
[4] = system: HCV replicon H/FL-Neo, genotype 1a full length; assay: HCV replicon assay in Huh7 cells containing H/FL-Neo; assay type: cell-based, Hepatitis C Virus
Protocol: as §1, §2

[5] = system: Huh7 cells containing H/FL-Neo; assay: Cytotoxicity by neutral red dye uptake in Huh7 cells containing H/FL-Neo; assay type: cell-based; conditions: Genotype 1a replicon
[6] = Cytotoxicity by neutral red dye uptake in 2.2.15 cells; conditions: human
Protocol: as §4, §2

[7] = Cytotoxicity by neutral red dye uptake in AVA5 cells; assay type: cell-based; conditions: human, AVA5 cells (HCV replicon, sub-genomic CON1), Genotype 1b replicon
[8] = Cytotoxicity by neutral red dye uptake in Huh7 cells containing H/FL-Neo; assay type: cell-based; conditions: human; Genotype 1a replicon
HCV replication = assay: HCV replicon assay in the presence of human serum; assay type: cell-based; conditions: Hepatitis C virus
Protocol: as §1, §2
(§5) To evaluate the effect of human serum on the anti-HCV potency and cytotoxicity of TIZ, human serum was added to the culture medium at various concentrations (Table 6). […] In the below tables, RM4863 is the same as compound 6 of Table 7.

[9] = Cytotoxicity in HCV replicon cells in the presence of human serum
Protocol: as §1, §2, §5

[10] = cited from earlier work
cytochrome P450 enzymes = conditions: cited from earlier work
[11] = Genotype 1b replicon, 3 days, first compound listed for combinations
[12] = Hepatitis C virus, Huh-7, Genotype 1a replicon

CS(=O)(=O)c1cnc(NC(=O)c2ccccc2O)s1 [Compound 75]
EC50 (HCV replicon): 2.1 µM
EC90 (HCV replicon): 8.1 µM
CC50 (HCV replicon cells): 53 µM
EC90 (HCV replicon genotype 1B): 7.9 µM
CC50 [1]: 54 µM
EC50 (HCV replicon genotype 1A): 2.8 µM
EC90 (HCV replicon genotype 1A): 8.5 µM
CC50 [2]: 56 µM

O=C(Nc1ncc(Br)s1)c1ccccc1O [RM4832]
EC50 (HBV; 2.2.15 cells, nine daily doses, read-out: Extracellular virion DNA EC50): 1.2 ± 0.1 µM
EC90 (HBV; 2.2.15 cells, nine daily doses, read-out: Extracellular virion DNA EC90): 4 ± 0.3 µM
EC50 (HBV; 2.2.15 cells, nine daily doses, read-out: Intracellular HBV RI EC50): 2.9 ± 0.3 µM
EC90 (HBV; 2.2.15 cells, nine daily doses, read-out: Intracellular HBV RI EC90): 8.7 ± 1 µM
CC50 (2.2.15 cells): > 100 µM
EC50 [3, 11]: 4.9 ± 0.5 µM
EC90 [3, 11]: 20 ± 1.9 µM
activity against HCV ([3]; among the other thiazolides): exhibited activity
CC50 (AVA5 cells): 98 ± 3.2 µM
antiviral activity against full length genotype 1a replicon compared with AVA5 cells (genotype 1b) [4]: equivalent
EC50 ([4]; Genotype 1a replicon): 2.8 ± 0.3 µM
EC90 ([4]; Genotype 1a replicon): 9.4 ± 1.1 µM
CC50 [5]: 88 ± 2.1 µM

O=C(Nc1ncc([N+](=O)[O-])s1)c1ccccc1O [TIZ, tizoxanide]
Selectivity Index Virion (HBV; CC50/EC90, extracellular virion DNA): >172
Selectivity Index RI (HBV; CC50/EC90, intracellular HBV RI): >83
EC50 (HBV; Hepatitis B virus, read-out: Intracellular HBV RI EC50): 0.46 ± 0.05 µM
EC50 (HBV; Hepatitis B virus, 2.2.15 cells, nine daily doses, read-out: Extracellular virion DNA EC50): 0.15 ± 0.02 µM
EC90 (HBV; Hepatitis B virus, 2.2.15 cells, nine daily doses, read-out: Extracellular virion DNA EC90): 0.58 ± 0.06 µM
EC90 (HBV; Hepatitis B virus, 2.2.15 cells, nine daily doses, read-out: Intracellular HBV RI EC90): 1.2 ± 0.2 µM
CC50 at 9 days [6]: > 100 µM
Selectivity Index ([3]; Genotype 1b replicon, CC50/EC50): 100
CC50 at 3 days [7]: 15 ± 1.2 µM
antiviral activity against full length genotype 1a replicon compared with AVA5 cells (genotype 1b) [4]: equivalent
Selectivity Index ([4]; Genotype 1a replicon, CC50/EC50): 56
EC50 [4, 12]: 0.25 ± 0.03 µM
EC90 [4, 12]: 1 ± 0.1 µM
CC50 at 3 days [8]: 14 ± 0.2 µM
EC50 (HCV replication; human serum 0 %): 0.25 ± 0.01 µM
EC90 (HCV replication; human serum 0 %): 0.98 ± 0.04 µM
EC50 (HCV replication; human serum 2.5 %): 0.48 ± 0.02 µM
EC90 (HCV replication; human serum 2.5 %): 1.1 ± 0.1 µM
EC50 (HCV replication; human serum 5 %): 0.64 ± 0.05 µM
EC90 (HCV replication; human serum 5 %): 2.3 ± 0.1 µM
EC50 (HCV replication; human serum 10 %): 1.1 ± 0.1 µM
EC90 (HCV replication; human serum 10 %): 3 ± 0.2 µM
EC50 (HCV replication; human serum 15 %): 2.7 ± 0.3 µM
EC90 (HCV replication; human serum 15 %): 15 ± 2 µM
EC50 (HCV replication; human serum 20 %): 9.4 ± 0.8 µM
EC90 (HCV replication; human serum 20 %): 27 ± 2.2 µM
EC50 (HCV replication; human serum 30 %): 9.3 ± 0.9 µM
EC90 (HCV replication; human serum 30 %): 32 ± 3 µM
CC50 at 3 days ([9]; CC50, human serum 0 %): 28 ± 0.9 µM
CC50 at 3 days ([9]; CC50, human serum 2.5 %): 65 ± 1.4 µM
CC50 at 3 days ([9]; CC50, human serum 5 %): 97 ± 3.9 µM
CC50 at 3 days ([9]; CC50, human serum 10 %): > 100 µM
CC50 at 3 days ([9]; CC50, human serum 15 %): > 100 µM
CC50 at 3 days ([9]; CC50, human serum 20 %): > 100 µM
CC50 at 3 days ([9]; CC50, human serum 30 %): > 100 µM
elimination half-life from plasma ([10]; in vivo): approximately 1.5 hours
Maximum serum concentrations ([10]; one 500 mg NTZ tablet (Alinia) orally with food): approximately 10 μg/mL and ~37 μM
part of an oral dose that passes through the intestinal tract and is excreted in feces as TIZ ([10]; oral dose of NTZ): Approximately two-thirds
inhibition of cytochrome P450 enzymes (cytochrome P450 enzymes): does not inhibit

From patent US8895752B2, “Alkylsulfonyl-substituted thiazolide compounds” (priority 2007, dated 2014)
